Assay type in all cases: cell-based
In assay [1] the target is T1, human UTR2 receptor (Homo sapiens, UniProt Q9UKP6).
T1 construct: expressed in transfected cells; host or cells: mouse pre-B cell line 300-19
T1 sequence (Q9UKP6 1-389): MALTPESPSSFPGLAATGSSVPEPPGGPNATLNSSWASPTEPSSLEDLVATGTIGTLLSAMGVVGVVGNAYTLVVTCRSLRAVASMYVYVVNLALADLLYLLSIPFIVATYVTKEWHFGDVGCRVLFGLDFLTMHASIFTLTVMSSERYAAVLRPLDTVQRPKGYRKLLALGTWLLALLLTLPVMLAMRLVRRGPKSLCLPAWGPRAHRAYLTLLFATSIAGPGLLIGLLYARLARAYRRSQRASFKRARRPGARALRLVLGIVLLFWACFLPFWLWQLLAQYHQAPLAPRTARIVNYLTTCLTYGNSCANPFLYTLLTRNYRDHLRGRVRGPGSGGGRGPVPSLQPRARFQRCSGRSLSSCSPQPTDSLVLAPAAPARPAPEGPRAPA
The assay can be described thus: Calcium mobilization assay, agonist activity at urotensin receptor. The settings on record: mouse pre-B 300-19 cells transfected with human UTR2, read-out: EC50% (nM) ± SD, Urotensin receptor. The method, then:
(§1) The mouse pre-B cell line 300-19 was stably transfected with the cDNA encoding the human UTR2 receptor (GenBank Acc#NM_018949), and expression was confirmed with a positive calcium signal in response to human urotensin (Sigma Aldrich). Increases in intracellular calcium were monitored using a Flexstation 384 (Molecular Devices, Sunnyvale, Calif.). The cells were batch loaded with the Calcium 3 Assay kit (Molecular Devices) in assay buffer (Hanks Balanced salt solution, HBSS, 20 mM HEPES, pH 7.4, 0.1% BSA) for 1 h at room temperature and labeled cells were dispensed into either black 96 well or 384 well assay plates (Greiner). Calcium mobilization induced by urotensin or compounds was measured in the Flexstation 384 (excitation, […]) for 70 seconds. Agonist activity was determined by direct addition of ligand or peptides, while antagonists were identified by pre-incubation of compounds with cells prior to urotensin addition. A dose response curve (compound concentration versus % maximum response for urotensin) was determined for each active agonist and antagonist and was fitted to a four parameter logistic equation using SoftmaxPro 4.6 (Molecular Devices), from which EC50% and IC50% values were calculated.

For assay [2], the target named is T2, human CCR10 (Homo sapiens, UniProt P46092).
T2 construct: expressed in transfected cells; host or cells: mouse pre-B cell line 300-19
T2 sequence (P46092 1-362): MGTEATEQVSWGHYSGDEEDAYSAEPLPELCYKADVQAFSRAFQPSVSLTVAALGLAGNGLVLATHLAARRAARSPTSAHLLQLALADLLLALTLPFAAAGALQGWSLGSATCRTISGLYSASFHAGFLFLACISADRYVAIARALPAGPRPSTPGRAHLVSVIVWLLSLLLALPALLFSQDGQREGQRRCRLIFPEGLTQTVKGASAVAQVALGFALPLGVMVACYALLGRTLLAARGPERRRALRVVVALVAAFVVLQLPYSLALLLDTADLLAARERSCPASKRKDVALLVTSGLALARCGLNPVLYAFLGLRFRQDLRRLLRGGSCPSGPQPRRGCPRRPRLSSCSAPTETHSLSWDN
The assay can be described thus: Calcium flux antagonism assay with human CCL27. The settings on record: 300-19 cells with human CCR10, human CCL27, read-out: IC50% (μM), CCR10 receptor. The method, then: as §1
Peptides for CCR10 (Marchese et. al. 1994, Homey et. al.) and CXCR3 (Loetscher et. al. 1998, Marchese et. al. 1995) antagonism were assayed in a mouse pre-B cell line 300-19 stably transfected with either human CCR10 or CXCR3 (Marchese et. al. 1995). Antagonism at each receptor was measured with a calcium flux assay in these cells as described above for UTR2 assays using human CCL27 and human CXCL10 (Cole et. al.) for CCR10 and CXCR3 respectively.
Selectivity was measured using the calcium flux assay on a panel of human chemokine receptor bearing cell lines (CCR1, CCR2, CCR3, CCR4, CCR5, CCR6, CCR7, CCR8, CCR9, CCR10, CXCR1, CXCR2, CXCR2, CXCR4, CXCR6 and CXCCR1) using the same method as above
(Calcium assays in cells follow changes in intracellular calcium, usually with a dye or a luminescent sensor.)

The target in assay [3] is T1, human UTR2 receptor. In words: Calcium mobilization assay, antagonist activity at urotensin receptor. The conditions noted are these: pre-incubation before urotensin, 300-19 cells with human UTR2, read-out: IC50% (μM) ± SD, Urotensin receptor. The method, then:
as §1

Non-standard residues stand in square brackets, D forms with d. Residues, ends and D or L forms follow the SMILES beside them. Tic = O=C(O)[C@@H]1Cc2ccccc2CN1; Orn = NCCC[C@H](N)C(=O)O; Aze = O=C(O)[C@@H]1CCN1; Aib = CC(C)(N)C(=O)O

Turning to `NCCCC[C@@H]1NC(=O)[C@H](Cc2c[nH]c3ccccc23)NC(=O)[C@H](Cc2ccccc2)NC(=O)[C@@H]2Cc3ccccc3CN2C(=O)[C@H]2CCCN2C(=O)[C@H](Cc2ccc(O)cc2)NC1=O` [Example 1] (cyclo(FWKY[dP][Tic])), the EC50 (as a rule, the concentration at which the effect is half-maximal) in assay [1] was 54 ± 12 nM. For `CC[C@H](C)[C@@H]1NC(=O)[C@@H]2Cc3ccccc3CN2C(=O)[C@H]2CCCN2C(=O)[C@H](Cc2ccc(O)cc2)NC(=O)[C@H](CCCCN)NC(=O)[C@H](Cc2c[nH]c3ccccc23)NC1=O` [Example 2] (cyclo(IWKY[dP][Tic])), the EC50 in assay [1] is 68 ± 32 nM. Still for that read-out and setting: the same measure for `NCCCC[C@@H]1NC(=O)[C@H](Cc2c[nH]c3ccccc23)NC(=O)[C@H](CCC(N)=O)NC(=O)[C@@H]2Cc3ccccc3CN2C(=O)[C@H]2CCCN2C(=O)[C@H](Cc2ccc(O)cc2)NC1=O` [Example 3] (cyclo(QWKY[dP][Tic])): 82 ± 13 nM; for `NCCCC[C@@H]1NC(=O)[C@H](Cc2c[nH]c3ccccc23)NC(=O)[C@H](Cc2ccccc2)NC(=O)[C@@H]2CCN2C(=O)[C@H]2CCCN2C(=O)[C@H](Cc2ccc(O)cc2)NC1=O` [Example 4] (cyclo(FWKY[dP][Aze])): 20 ± 5 nM. Same read-out and setting: the same measure for `CC[C@H](C)[C@@H]1NC(=O)[C@@H]2CCN2C(=O)[C@H]2CCCN2C(=O)[C@H](Cc2ccc(O)cc2)NC(=O)[C@H](CCCCN)NC(=O)[C@H](Cc2c[nH]c3ccccc23)NC1=O` [Example 5] (cyclo(IWKY[dP][Aze])): 45 ± 22 nM; for `NCCCC[C@@H]1NC(=O)[C@H](Cc2c[nH]c3ccccc23)NC(=O)[C@H](CCC(N)=O)NC(=O)[C@@H]2CCN2C(=O)[C@H]2CCCN2C(=O)[C@H](Cc2ccc(O)cc2)NC1=O` [Example 6] (cyclo(QWKY[dP][Aze])): 134 ± 61 nM; for `C[C@@H](O)[C@@H]1NC(=O)[C@@H]2CCN2C(=O)[C@H]2CCCN2C(=O)[C@H](Cc2ccc(O)cc2)NC(=O)[C@H](CCCCN)NC(=O)[C@H](Cc2c[nH]c3ccccc23)NC1=O` [Example 7] (cyclo(TWKY[dP][Aze])): 286 ± 66 nM.

With `COc1ccc2c3c1CNC(=O)[C@H](Cc1ccc(O)cc1)NC(=O)[C@H](CCCCN)NC(=O)[C@H](Cc1c[nH]c4ccccc14)NC(=O)[C@H](Cc1ccccc1)NC(=O)Cc1c(OC)ccc(c1O3)C2(C)C` [Example 8], the EC50 in assay [1] turned out to be 18 ± 3 nM. Regarding `COc1ccc2c3c1CNC(=O)[C@H](Cc1ccc(O)cc1)NC(=O)[C@H](CCCCN)NC(=O)[C@H](Cc1c[nH]c4ccccc14)NC(=O)[C@H]([C@@H](C)O)NC(=O)Cc1c(OC)ccc(c1O3)C2(C)C` [Example 9], the EC50 in assay [1] was 160 ± 81 nM. As to `COc1ccc2c3c1CNC(=O)[C@H](Cc1ccc(O)cc1)NC(=O)[C@H](CCCCN)NC(=O)[C@H](Cc1c[nH]c4ccccc14)NC(=O)[C@H](CCC(N)=O)NC(=O)Cc1c(OC)ccc(c1O3)C2(C)C` [Example 10], the EC50 in assay [1] was found to be 170 ± 40 nM.

With `CC[C@H](C)[C@@H]1NC(=O)Cc2c(OC)ccc3c2Oc2c(ccc(OC)c2CNC(=O)[C@H](Cc2ccc(O)cc2)NC(=O)[C@H](CCCCN)NC(=O)[C@H](Cc2c[nH]c4ccccc24)NC1=O)C3(C)C` [Example 11], the EC50 in assay [1] came out at 192 ± 14 nM.

For the compound `COc1ccc2c3c1CNC(=O)[C@H](Cc1c[nH]cn1)NC(=O)[C@H](Cc1ccc(O)cc1)NC(=O)[C@H](CCCCN)NC(=O)[C@H](Cc1c[nH]c4ccccc14)NC(=O)Cc1c(OC)ccc(c1O3)C2(C)C` [Example 12], the EC50 in assay [1] came out at 218 nM. For `COc1ccc2c3c1CNC(=O)[C@H](Cc1ccc(O)cc1)NC(=O)[C@H](CCCCN)NC(=O)[C@H](Cc1c[nH]c4ccccc14)NC(=O)[C@H](CCC(=O)O)NC(=O)Cc1c(OC)ccc(c1O3)C2(C)C` [Example 13], the EC50 in assay [1] was 274 ± 5 nM.

Take `CC[C@H](C)[C@@H]1NC(=O)C[C@@H]2NC(=O)[C@@H]3C[C@@H](CN3C2=O)NC(=O)[C@H](Cc2ccc(O)cc2)NC(=O)[C@H](CCCCN)NC(=O)[C@H](Cc2c[nH]c3ccccc23)NC1=O` [Example 14]: the EC50 in assay [1] came out at 189 ± 13 nM. As to `CC(C)[C@H]1NC(=O)[C@H](Cc2c[nH]c3ccccc23)NC(=O)[C@@H]2Cc3ccccc3CN2C(=O)[C@H]2CCCN2C(=O)[C@H](CCCN)NC(=O)[C@H](Cc2c[nH]c3ccccc23)NC1=O` [Example 17] (cyclo(W[dV]W[Orn][dP][Tic])), the IC50 (in general, the point on the concentration scale where inhibition reaches its midpoint) in assay [2] was found to be 0.31 µM. Still for that read-out and setting: then `CC(C)[C@H]1NC(=O)[C@H](Cc2c[nH]c3ccccc23)NC(=O)[C@@H]2Cc3ccccc3CN2C(=O)[C@H]2CCCN2C(=O)[C@H](CCCCN)NC(=O)[C@H](Cc2c[nH]c3ccccc23)NC1=O` [Example 18] (cyclo(W[dV]WK[dP][Tic])), with 0.29 µM. Turning to `CC[C@H](C)[C@@H]1NC(=O)[C@@H]2Cc3ccccc3CN2C(=O)[C@H]2CCCN2C(=O)[C@H]([C@@H](C)CC)NC(=O)C(C)(C)NC(=O)[C@@H](CCCNC(=N)N)NC1=O` [Example 19] (cyclo(I[dR][Aib]I[dP][Tic])), the IC50 in assay [3] was found to be 6.2 ± 1.5 µM.

Values taken from patent publication US10000535B2, “Template-fixed peptidomimetics” (POLYPHOR LTD., priority 2007, dated 2018).
